Source: article PMC7684578, “Isopedopeptins A–H: Cationic Cyclic Lipodepsipeptides from Pedobacter cryoconitis UP508 Targeting WHO Top-Priority Carbapenem-Resistant Bacteria” (ACS Chemical Biology, 2020)
Values after ≈ are worked out from the molar mass of the structure shown. Where two headings read alike, the source gives them in different places. Starred links: 1 amine or outer side, 2 acyl side, 3 side chain; linkers in the order of their positions; H or OH if unused. Positions of bridges follow the written chain, without caps; N, C: chain ends. Non-standard residues stand in square brackets, D forms with d. Residues, ends and D or L forms follow the SMILES beside them. X2 = CCCCCCC[C@H](CC(=O)[*:1])O[*:2]; Val(3-OH) = CC(C)(O)[C@H](N)C(=O)O; X1 = C/C=C(/N[*:1])C(=O)[*:2]; Dab = NCC[C@H](N)C(=O)O; Dap = NC[C@H](N)C(=O)O

Tests used:
Type in all cases: cell-based
A. baumannii = assay: MIC determined at the Public Health Agency of Sweden (EUCAST); details: Acinetobacter baumannii
Procedure: (§1) 10^8 CFU/mL) with turbidity assessed using a Sensititre Nephelometer (Trek Diagnostics Systems Ltd, UK). 50 µL of this bacterial suspension was transferred to 10 mL of MHII broth to give a final bacterial concentration ≅ 5 × 10^5 CFU/mL (acceptable range 3 – 7 × 10^5 CFU/mL). 50 µL of bacterial suspension was pipetted into each well (except the medium control well, where 50 µL MHII was pipetted). Final volume in each well was 100 µL. Plates were covered and incubated without shaking for 18-20 h at 35 °C ± 2 °C. MIC was read visually, as complete inhibition of growth by the unaided eye, using the medium-only wells as the control. Each compound was assayed at least in duplicate.
(§2) Additionally, the MIC for compound 2 against clinical carbapenem-resistant strains of A. baumannii […]
(§3) determined at the Public Health Agency of Sweden (according to EUCAST recommendations).
(§4) In vitro Cytotoxicity Determination. In vitro cytotoxicity was determined by a fluorometric microculture cytotoxicity assay,7 based on hydrolysis of fluorescein diacetate to fluorescein by cells with intact plasma membranes. In short, HepG2 cells (hepatocellular carcinoma cells, ATCC), in Eagle's Minimum Essential Medium (ATCC) supplemented with 10 % fetal bovine serum, penicillin/streptomycin (100 U/100 µg/mL) and 2 mM L-glutamine, were seeded in 384-well assay plates at a density of 1000 cells/well. The cells were incubated over night at 37°C and compounds in 10 mM DMSO were added, to obtain final concentrations 64 µM – 0.25 µM in two-fold dilutions.
(§5) After incubation for 72 h at 37°C, the cells were pelleted and washed. Fluorescein diacetate was added (1 µL, 0.5 mg/mL) and the fluorescence [485 nm(exc)/530 nm(em.)] was measured after 50 min at 37°C. Bortezomib (2 µM) was used as positive control and dose response testing of doxorubicin (top concentration 2 µM) was performed repeatedly to follow assay performance over time. Cytotoxicity was assessed after 72 h with cell survival presented as survival index (SI, %) defined as fluorescence in test wells in percent of control cultures with blank values subtracted.
(§6) Criteria for a successful assay include a signal-to-noise ratio in control cultures >10, CV <30% and a 7 Lindhagen, E., Nygren, P., and Larsson, R. (2008) The fluorometric microculture cytotoxicity assay. Nat.

E. coli = assay: as above; details: Escherichia coli
Procedure: as §1, §2, §3, §4, §5, §6

[1] = test system: red blood cells from heparinized human blood; assay: in vitro; details: 45 min, 100 µM, pH 7.4
Procedure: positive control (Bortezomib) SI of <5%. The half maximal inhibitory concentration (IC50) was determined from log concentration-effect curves using non-linear regression analysis.
Frequency of resistance (FoR). For the determination of the FoR, the MIC of compound 2 was first evaluated on solid MH-agar medium prepared in 35 mm diameter plates. Each plate contained 4 mL agar with the appropriate amount of compound. Bacterial cultures were grown and prepared as described for the MIC assay. 13 µL of bacterial culture diluted to 0.5 MacFarland was inoculated into 1 mL 0.9% NaCl resulting in ~2 × 10^6 CFU/mL. 5 µL of this bacterial suspension was spotted onto the surface of each agar plate (~10^4 CFU/spot). Plates were sealed and incubated at 37°C for 18–20 hours. Agar MIC was recorded according to CLSI guidelines as the lowest concentration of […]
faint haze caused by the inoculum. Then 9 cm plates were prepared with 25 mL MHII agar medium containing 4 × or 8 × solid MIC concentrations of test compounds and seeded with 100 µL of a bacterial preparation, concentrated by centrifugation from overnight cultures and resuspended in 0.9% NaCl, corresponding to 108 CFU and 109 CFU per plate, and spread on the agar using 4–5 glass beads of 4 mm diameter. Since CFU were evaluated using the McFarland turbidity standard, the exact CFU number plated was evaluated by plating of serial dilutions of each inoculum preparation on MHII agar plates. Plates were incubated at 37°C and colonies were counted at 24 h and 48 h post-plating. The frequencies of resistance were then calculated by counting the number of validated resistant colonies growing on antibiotic preparations divided by the evaluated number of CFU in the inoculum.
Hemolysis assay. Compounds were evaluated for hemolytic activity using red blood cells from heparinized human blood. Red blood cells (RBC) were washed three times in Tyrode buffer (130 mM NaCl, 4 mM KCl, 2.8 mM NaOAc, 1 mM MgCl2, 10 mM HEPES, 10 mM glucose, 1 mM CaCl2, adjusted to pH 7.4) and resuspended in the same buffer. Final concentrations in the hemolysis assay were: 100 µM compound, 1% DMSO, and 50% RBC, assayed in a 200 µL volume in a microtiter plate. The mixture was incubated at 37 °C for 45 min with shaking (250 rpm). After incubation, RBCs were removed by centrifugation (1000 × g for 10 min), 100 µL clear plasma was transferred to a fresh microtiter plate, and the amount of hemoglobin measured using a spectrophotometer at 540 nm. The […]
complete lysis control contained 2% Triton X-100 (in Tyrode buffer) instead of compound; the negative control contained Tyrode buffer but no compound. Percent hemolysis was calculated as:
[Abs compound] - [Abs negative control] / [Abs complete lysis control] - [Abs negative control] ×
100. Values greater than 1% hemolysis at 100 µM were regarded as a red flag.
Bacterial membrane permeabilization assay. Liposomes were manufactured and permeabilization assayed as described previously.8 Briefly, dry lipid films of E. coli polar lipid extract were formed on round-bottom flask walls. This was achieved by dissolving lipids in chloroform and evaporating the solvent under agitation and nitrogen gas flow, followed by incubation in vacuum chamber. Lipid films were re-suspended by 30 min stirring (E. coli) at 55°C in an aqueous solution of 100 mM 5(6)-carboxyfluorescein in 10 mM Tris buffer (set to pH 7.4 at 37°C). Suspensions were subjected to repeated extrusion through a 100 nm pore size polycarbonate membrane in order to reduce multilamellar structures and polydispersity. Un-trapped carboxyfluorescein was removed by gel filtration. Membrane permeability was measured by monitoring carboxyfluorescein efflux from the liposomes to the external low concentration environment, resulting in loss of self-quenching and an increased fluorescence signal. The 96-well plates were prepared with a 2-fold serial dilution of the samples in Tris buffer, as well as negative controls (background) and 0.16% Triton X-100 (maximum […]
leakage). […]

## C/C=C1/NC(=O)[C@H](CCN)NC(=O)[C@H](CC(C)C)NC(=O)[C@H](CN)NC(=O)C[C@@H](CCCCCCC)OC(=O)[C@H](CC(=O)O)NC(=O)[C@H](C(C)(C)O)NC(=O)[C@@H](Cc2ccccc2)NC(=O)[C@H](CN)NC(=O)[C@H]([C@@H](C)O)NC1=O [Compound 2, isopedopeptin B] ([Dap]L[Dab][X1]T[Dap][dF][Val(3-OH)]D; linker N-C via X2)
A. baumannii; CARBA, Public Health Agency of Sweden, read-out: MIC A. baumannii A219
  MIC: 2 µg/mL (≈ 1.79 µM)
A. baumannii; CARBA, Public Health Agency of Sweden, read-out: MIC A. baumannii A250
  MIC: 2 µg/mL (≈ 1.79 µM)
A. baumannii; summary in text over strains, strains not named, read-out: MIC carbapenem-resistant A. baumannii
  MIC: ≥ 1 µg/mL
E. coli; ATCC25922, WT, Public Health Agency of Sweden, read-out: MIC E. coli ATCC25922
  MIC: 1 µg/mL (≈ 0.895 µM)
E. coli; CARBA, Public Health Agency of Sweden, read-out: MIC E. coli EC4129
  MIC: 2 µg/mL (≈ 1.79 µM)
E. coli; CARBA, Public Health Agency of Sweden, read-out: MIC E. coli EC4163
  MIC: 1 µg/mL (≈ 0.895 µM)
E. coli; summary in text over strains, strains not named, read-out: MIC carbapenem-resistant E. coli
  MIC: ≥ 2 µg/mL
[1]
  Hemolysis (%): 0.8%
